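48-hour exposure; five concentrations; linearly interpolated endpoints. GI50 = concentration required for 50% inhibition of growth.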 The source made the active and inactive calls. No stated cut-off is given here; in the data, active = GI50 up to about 1.1 µM and inactive = higher.
Key:
Experiment in all cases: NCI-60 cell line screen, 48 h
[1] = test system: UACC-257
[2] = test system: SN12C
[3] = test system: K562
[4] = test system: XF498
[5] = test system: HCT-116
[6] = test system: MDA-MB-231
[7] = test system: HOP-92
[8] = test system: COLO 205
[9] = test system: LOX IMVI
[10] = test system: NCI/ADR-RES
[11] = test system: NCI-H522
[12] = test system: Hs-578T
[13] = test system: EKVX
[14] = test system: MCF7
[15] = test system: NCI-H23
[16] = test system: UO-31
[17] = test system: A498
[18] = test system: A549
[19] = test system: OVCAR-4
[20] = test system: SW-620

Measured: GI50

O=C(CSc1ncnc2[nH]cnc12)c1ccccc1
inactive: [1] > 100 µM | [2] > 100 µM | [3] 41.3 µM | [4] > 100 µM | [5] > 100 µM | [6] > 100 µM | [7] 50.2 µM | [8] > 91 µM | [9] 79.4 µM | [10] 96.4 µM | [11] 47.4 µM | [12] > 100 µM | [13] > 100 µM | [14] > 100 µM | [15] > 100 µM | [16] > 95.7 µM | [17] > 100 µM | [18] > 100 µM | [19] > 48 µM | [20] > 100 µM
